Consider 1 molecule from EP0406685A1, “Substituted polysaccharides, method for their preparation as well as their use in prophylaxis and treatment of viral diseases” (HOECHST AKTIENGESELLSCHAFT, priority 1989, dated 1991).

This data set deals with Friend Leukämie Virus. Kind of data set: FLV model of the mouse (Friend leukaemia virus infection, relative spleen weight). The class given is in vivo. Conditions: i.p.; for rel.Milzgewicht in % Körpergew.: start 2 days after infection, spleen 14 days after infection. An excerpt:
Da für die HIV-Infektion des Menschen kein überzeugendes Infektionsmodell bei Labortieren existiert, muß bei der Prüfung von Chemotherapeutika auf Infektionen mit anderen Retroviren zurückgegriffen werden. Im vorliegenden Falle wurde die Infektion der Maus mit dem Friend Leukämie Virus gewählt.
Normale Labormäuse (NMRI = Naval Medical Research Institute) wurden durch intravenöse Injektion mit Friend-Virus enthaltendem Mäuseserum infiziert. Bei den unbehandelten Kontrolltieren entwickelt sich als Symptom der Infektion innerhalb von 2 Wochen bzw. 3 Wochen eine deutliche Vergrößerung von Milz und Leber. Die Behandlung erfolgt über 10 Tage bei intraperitonealer Applikation und über 16 Tage bei oraler Applikation der Testsubstanzen. Bei intraperitonealer Gabe der Testsubstanzen beginnt die Behandlung 48 Stunden nach der Infektion, bei peroraler Gabe der Testsubstanz 4 Tage vor der Infektion. Am 14. Tag nach Infektion werden die Tiere durch Luxation der Halswirbel getötet und geöffnet. Die Milz wird entnommen und gewogen. Als Meßparameter der therapeutischen Wirksamkeit wird das Milzgewicht der behandelten Tiere mit den der unbehandelten Infektionskontrolle in Relation gesetzt.
Für die orale Applikation werden die Prüfsubstanzen in Trinkwasser gelöst. Alle 24 Stunden werden die Trinkwasserbehälter mit jeweils 100 ml Inhalt gewechselt. Aus dem täglich ermittelten Verbrauch an Trinkwasser pro Versuchskollektiv wird die durchschnittliche Dosismenge errechnet, die einer Maus pro 24 Stunden appliziert wurde.
Während bei uninfizierten, ausgewachsenen Labormäusen (20 - 24 g Körpergewicht) die Milz weniger als 1 % des Körpergewichtes wiegt, erreicht bei infizierten Tieren die Milz am Ende des Versuchs etwa bis zu 10 % des Körpergewichtes.
Als Vergleichspräparate dienen Suramin (= 3,3′-Ureylen-bis-(8-(3-benzamido-4-methylbenzamido)-naphthalin-1,3,5-trisulfonsäure|) bei intraperitonealer Gabe bzw. Pentosanpolysulfat bei intraperitonealer und oraler Gabe.

For the molecule `Cc1ccc(C(=O)Nc2ccc(S(=O)(=O)O)c3cc(S(=O)(=O)O)cc(S(=O)(=O)O)c23)cc1NC(=O)c1cccc(NC(=O)Nc2cccc(C(=O)Nc3cc(C(=O)Nc4ccc(S(=O)(=O)O)c5cc(S(=O)(=O)O)cc(S(=O)(=O)O)c45)ccc3C)c2)c1` [Suramin, 3,3′-Ureylen-bis-(8-(3-benzamido-4-methylbenzamido)-naphthalin-1,3,5-trisulfonsäure|)], the “rel.Milzgewicht in % Körpergew.” value is, setting by setting: (10 x 0,1 mg/Maus, second series (Kontrolle 7,25)) 5,68 % Körpergew; (10 x 1,0 mg/Maus, first series (Kontrolle 6,41)) 4,96 % Körpergew. Besides, the “Anzahl überlebender Mäuse n” value runs as follows: (10 x 0,1 mg/Maus, second series (Kontrolle 10)) 10; (10 x 1,0 mg/Maus, first series (Kontrolle 10)) 10.
